The experiment concerns P388 leukemia ip, CD2F1 mice, survival T/C. Kind of experiment: NCI In Vivo Anticancer Drug Screen. Data for tumor model P388 Leukemia (intraperitoneal) in CD2F1 (CDF1) mice. The settings on record: endpoint: median survival time, higher = longer survival. Put shortly:
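Mice carrying the transplanted tumor received test compound or vehicle. Survival was recorded in each group, and the value is the treated-group measurement divided by that of the vehicle-treated control group.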

[1] abbreviates: dose: 50.0 mg/kg/injection, schedule: Q01DX009 (ip), vehicle: Klucel (hydroxypropylcellulose) (HPC).
[2] abbreviates: dose: 100.0 mg/kg/injection, schedule: Q01DX009 (ip), vehicle: Klucel (hydroxypropylcellulose) (HPC).
Where [3] appears, read: dose: 200.0 mg/kg/injection, schedule: Q01DX009 (ip), vehicle: Klucel (hydroxypropylcellulose) (HPC).
Setting [4] is: dose: 50.0 mg/kg/injection, schedule: Q01DX005 (ip), vehicle: Klucel (hydroxypropylcellulose) (HPC).
Setting [5] is: dose: 100.0 mg/kg/injection, schedule: Q01DX005 (ip), vehicle: Klucel (hydroxypropylcellulose) (HPC).

Several values for one entry are separate records, joined by “and”; a condition that tells them apart may be missing. Identical values can stand only once. Inconclusive results and toxic doses are left out. Numbered stars: 1 amine (or outer) side, 2 acyl side, 3 side chain; on linkers, the order of the positions; unused ones are H or OH. Bridge positions count the residues as written; N and C are the ends. Square brackets hold non-standard residues; d marks the D form. Peptide text beside a SMILES is read from it. ξ: configuration not given here. X1 = CC[C@@H](C)[C@H](N[*:1])[C@H](O)CC(=O)OC(C(=O)C(C)C(=O)[*:2])C(C)C; ξNMeY = CNC(Cc1ccc(O)cc1)C(=O)O; ξNMeL = CNC(CC(C)C)C(=O)O; ξL = CC(C)CC(N)C(=O)O; ξT = CC(O)C(N)C(=O)O; ξP = O=C(O)C1CCCN1

For the compound `COc1ccc(-c2nccc3cc(OC)c(OC)cc23)cc1O`, the T/C (dose: 25.0 mg/kg/injection, schedule: Q01DX009 (ip), vehicle: other) is 100 % of control; the T/C (dose: 50.0 mg/kg/injection, schedule: Q01DX009 (ip), vehicle: other) was 86 % of control; the T/C (dose: 100.0 mg/kg/injection, schedule: Q01DX009 (ip), vehicle: other) is 86 % of control.
Regarding `CCCCCC[N+]1(CC)CCCC1`, the T/C was 97 % of control (dose: 0.78 mg/kg/injection, schedule: Q01DX009 (ip), vehicle: saline); 113 % of control (dose: 1.56 mg/kg/injection, schedule: Q01DX009 (ip), vehicle: saline); 98 % of control and 100 % of control (dose: 3.12 mg/kg/injection, schedule: Q01DX009 (ip), vehicle: saline).
Regarding `COC(=O)c1ccc(SCCC(=O)CN2C(=O)c3ccccc3C2=O)cc1`, the T/C under setting [1] is 94 % of control, the T/C under setting [2] was 93 % of control and the T/C under setting [3] was 86 % of control.
The like results for `CC(C)CC(NP(=S)(c1ccccc1)c1ccccc1)C(=O)O` (stereo unspecified) were, in that order, 111 % of control, 105 % of control and 108 % of control.
Take `CC[C@@H](C)[C@@H]1NC(=O)C(NC(=O)C(CC(C)C)NC)C(C)OC(=O)C(Cc2ccc(OC)cc2)N(C)C(=O)C2CCCN2C(=O)C(CC(C)C)NC(=O)C(C)C(=O)C(C(C)C)OC(=O)C[C@H]1O` (stereo partly specified) (H-[ξNMeL][ξT][X1][ξL][ξP][ξNMeY](Me); ester 2-C): the T/C is 104 % of control (dose: 0.06 mg/kg/injection, schedule: Q01DX005 (ip), vehicle: water); 112 % of control (dose: 0.13 mg/kg/injection, schedule: Q01DX005 (ip), vehicle: water); 114 % of control (dose: 0.25 mg/kg/injection, schedule: Q01DX005 (ip), vehicle: water); 113 % of control (dose: 0.5 mg/kg/injection, schedule: Q01DX005 (ip), vehicle: saline + alcohol); 124 % of control (dose: 1.0 mg/kg/injection, schedule: Q01DX005 (ip), vehicle: saline + alcohol); 150 % of control (dose: 2.0 mg/kg/injection, schedule: Q01DX005 (ip), vehicle: water). Moreover, the T/C (dose: 0.25 micrograms/kg/injection, schedule: Q01DX005 (ip), vehicle: saline + alcohol) was 106 % of control; the T/C (dose: 0.5 micrograms/kg/injection, schedule: Q01DX005 (ip), vehicle: saline + alcohol) was 110 % of control; the T/C (dose: 1.0 micrograms/kg/injection, schedule: Q01DX005 (ip), vehicle: saline + alcohol) is 96 % of control; the T/C (dose: 2.0 micrograms/kg/injection, schedule: Q01DX005 (ip), vehicle: saline + alcohol) was 100 % of control.
For `COC1=Nc2ccccc2S(=O)(=O)C=C1`, the T/C reads like this: (dose: 15.0 mg/kg/injection, schedule: Q01DX005 (ip), vehicle: saline with Tween-80) 101 % of control; (dose: 30.0 mg/kg/injection, schedule: Q01DX005 (ip), vehicle: saline with Tween-80) 104 % of control; (dose: 60.0 mg/kg/injection, schedule: Q01DX005 (ip), vehicle: saline with Tween-80) 116 % of control and 119 % of control.
For the compound `O/N=C1\CCC2CCCCC12` (stereo unspecified), the T/C is, setting by setting: under setting [4], 98 % of control; under setting [5], 102 % of control; (dose: 200.0 mg/kg/injection, schedule: Q01DX005 (ip), vehicle: Klucel (hydroxypropylcellulose) (HPC)) 107 % of control.
Regarding `C[C@]12CCNC(=O)C=C1CC[C@@H]1C2CC[C@@]2(C)C1CC[C@@H]2OC(=O)COc1ccc(N(CCCl)CCCl)cc1` (stereo partly specified), the T/C (dose: 100.0 mg/kg/injection, schedule: Q04DX002 (ip), vehicle: saline with Tween-80) was 159 % of control; the T/C (dose: 200.0 mg/kg/injection, schedule: Q04DX002 (ip), vehicle: saline with Tween-80) is 199 % of control; the T/C (dose: 400.0 mg/kg/injection, schedule: Q04DX002 (ip), vehicle: saline with Tween-80) is 225 % of control.
`[Br][Sn]([CH2]CC[CH2][Sn]([Br])([c]1ccccc1)[c]1ccccc1)([c]1ccccc1)[c]1ccccc1`: the T/C is 93 % of control under setting [4] and 100 % of control under setting [5].
Take `CC(=O)Oc1c(OC(C)=O)c(C=O)c2c(OC(C)=O)c(-c3c(C)cc4c(C(C)C)c(OC(C)=O)c(OC(C)=O)c(C=O)c4c3OC(C)=O)c(C)cc2c1C(C)C`: the T/C runs as follows: (dose: 12.5 mg/kg/injection, schedule: Q01DX005 (ip), vehicle: Klucel (hydroxypropylcellulose) (HPC)) 102 % of control; (dose: 25.0 mg/kg/injection, schedule: Q01DX005 (ip), vehicle: Klucel (hydroxypropylcellulose) (HPC)) 107 % of control; under setting [4], 103 % of control and 111 % of control.
Consider `CC(=O)N[C@@H](Cc1ccc(N(CCCl)CCCl)cc1)C(=O)ON1C(=O)CCC1=O`, for which the T/C reads like this: (dose: 5.8 mg/kg/injection, schedule: Q01DX009 (ip), vehicle: saline) 168 % of control; (dose: 5.8 mg/kg/injection, schedule: Q03HX008 (ip), vehicle: saline) 160 % of control; (dose: 11.6 mg/kg/injection, schedule: Q01DX009 (ip), vehicle: saline) 190 % of control; (dose: 11.6 mg/kg/injection, schedule: Q03HX008 (ip), vehicle: saline) 195 % of control; (dose: 23.2 mg/kg/injection, schedule: Q03HX008 (ip), vehicle: saline) 260 % of control.
For the compound `O=C(O)c1ccc[c]([Sb]2(=[O])[O]C(CO)C(C(O)C(O)C(=O)O)[O]2)c1` (stereo unspecified), the T/C (dose: 50.0 mg/kg/injection, schedule: Q01DX005 (ip), vehicle: saline) is 100 % of control; the T/C (dose: 100.0 mg/kg/injection, schedule: Q01DX005 (ip), vehicle: saline) was 100 % of control; the T/C (dose: 200.0 mg/kg/injection, schedule: Q01DX005 (ip), vehicle: saline) is 104 % of control.
Consider `Cc1cc(C)cc(C(=O)NCc2ccc[n+]([O-])c2)c1`, for which the T/C (dose: 60.0 mg/kg/injection, schedule: Q01DX005 (ip), vehicle: saline) was 97 % of control and the T/C (dose: 120.0 mg/kg/injection, schedule: Q01DX005 (ip), vehicle: saline) is 94 % of control.
On to `[Cl][Pt][Cl].[NH-]CC(=O)O`, for which the T/C by setting is: (dose: 25.0 mg/kg/injection, schedule: Q01DX009 (ip), vehicle: water) 171 % of control and 185 % of control; (dose: 50.0 mg/kg/injection, schedule: Q01DX009 (ip), vehicle: water) 104 % of control.
In the case of `CCCCCC1([N+](=O)[O-])CN(C)CC2CCCCN2C1` (stereo unspecified), the T/C by setting is: (dose: 100.0 mg/kg/injection, schedule: Q04DX002 (ip), vehicle: saline) 102 % of control; (dose: 200.0 mg/kg/injection, schedule: Q04DX002 (ip), vehicle: saline) 102 % of control.
Turning to `COC(=O)[C@@]12OC[C@]34C([C@@H](O)C1O)[C@@]1(C)CC(=O)C(OS(=O)(=O)C(F)(F)F)=C(C)C1C[C@H]3OC(=O)[C@H](OC(=O)/C=C(\C)C(C)C)[C@H]42` (stereo partly specified), the T/C (dose: 0.25 mg/kg/injection, schedule: Q01DX005 (ip), vehicle: DMSO) is 101 % of control; the T/C (dose: 0.5 mg/kg/injection, schedule: Q01DX005 (ip), vehicle: DMSO) is 108 % of control; the T/C (dose: 1.0 mg/kg/injection, schedule: Q01DX005 (ip), vehicle: DMSO) was 109 % of control and 97 % of control; the T/C (dose: 2.0 mg/kg/injection, schedule: Q01DX005 (ip), vehicle: DMSO) was 107 % of control and 118 % of control; the T/C (dose: 4.0 mg/kg/injection, schedule: Q01DX005 (ip), vehicle: DMSO) is 107 % of control; the T/C (dose: 8.0 mg/kg/injection, schedule: Q01DX005 (ip), vehicle: DMSO) is 115 % of control.
`CN(C)c1ccc(/C=C/c2ccc3ccccc3n2)cc1`: the T/C is 95 % of control (dose: 25.0 mg/kg/injection, schedule: Q01DX009 (ip), vehicle: saline with Tween-80); 100 % of control (dose: 50.0 mg/kg/injection, schedule: Q01DX009 (ip), vehicle: saline with Tween-80); 100 % of control (dose: 100.0 mg/kg/injection, schedule: Q01DX009 (ip), vehicle: saline with Tween-80); 100 % of control (dose: 100.0 mg/kg/injection, schedule: Q04DX003 (ip), vehicle: saline with Tween-80).
As to `O=C(Cc1cc2c(cc1Br)OCO2)NCCc1ccc2c(c1)OCO2`, the T/C is 99 % of control (dose: 12.5 mg/kg/injection, schedule: Q01DX001 (ip), vehicle: saline + alcohol); 98 % of control (dose: 25.0 mg/kg/injection, schedule: Q01DX001 (ip), vehicle: saline + alcohol); 105 % of control (dose: 50.0 mg/kg/injection, schedule: Q01DX001 (ip), vehicle: saline + alcohol).
Take `O=[N+]([O-])CC(O)C(Cl)(Cl)Cl` (stereo unspecified): the T/C (dose: 50.0 mg/kg/injection, schedule: Q01DX001 (ip), vehicle: saline) was 107 % of control; the T/C (dose: 100.0 mg/kg/injection, schedule: Q01DX001 (ip), vehicle: saline) was 107 % of control; the T/C (dose: 200.0 mg/kg/injection, schedule: Q01DX001 (ip), vehicle: saline) is 107 % of control.

The record behind these values is PubChem BioAssay AID330 (DTP/NCI, 2004).
